The record followed here is ChEMBL document CHEMBL1153188, “Quinoline-3-carboxamide containing sulfones as liver X receptor (LXR) agonists with binding selectivity for LXRbeta and low blood-brain penetration” (Bioorg Med Chem Lett, 2010).

Series [1] deals with THP-1. The experiment in a line: Stimulation of [3H]cholesterol efflux in human THP1 foam cells loaded with ac-LDL relative to TO901317. It counts as functional, cell-based.
In series [2] the target is T1, Oxysterols receptor LXR-beta (Homo sapiens, UniProt P55055). The experiment in a line: Displacement of [3H]TO901317 from human recombinant LXRbeta expressed in Escherichia coli by flashplate method.
Series [3] addresses T2, Oxysterols receptor LXR-alpha (Homo sapiens, UniProt Q13133).
T2 sequence (Q13133 whole entry): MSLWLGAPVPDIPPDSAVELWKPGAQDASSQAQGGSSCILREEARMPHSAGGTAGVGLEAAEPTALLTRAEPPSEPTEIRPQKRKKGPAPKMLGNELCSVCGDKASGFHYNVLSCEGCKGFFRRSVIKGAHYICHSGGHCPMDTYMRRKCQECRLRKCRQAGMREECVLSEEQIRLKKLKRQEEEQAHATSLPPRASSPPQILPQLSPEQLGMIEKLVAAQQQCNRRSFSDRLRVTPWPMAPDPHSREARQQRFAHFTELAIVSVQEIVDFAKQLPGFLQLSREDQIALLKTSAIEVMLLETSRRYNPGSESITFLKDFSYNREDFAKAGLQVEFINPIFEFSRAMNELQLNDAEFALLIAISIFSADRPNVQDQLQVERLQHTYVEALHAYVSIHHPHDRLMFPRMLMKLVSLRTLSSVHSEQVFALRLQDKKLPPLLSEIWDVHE
The experiment in a line: Displacement of [3H]TO901317 from human recombinant LXRalpha expressed in Escherichia coli by flashplate method. In general terms: Loss of bound radioactivity is the signal in a displacement assay; it reports binding, not function.

Series [4] has as its system THP-1. The experiment in a line: Effect on ABCA1 gene expression in human differentiated THP1 cells. The format is functional, cell-based.
Series [5] has as its system THP-1. The experiment in a line: Effect on ABCA1 gene expression in human differentiated THP1 cells relative to TO901317. The format is functional.
Series [6] deals with HepG2. The experiment in a line: Effect on triglyceride accumulation in human HepG2 cells. The format is functional, cell-based.
Series [7] deals with HepG2. The experiment in a line: Effect on triglyceride accumulation in human HepG2 cells relative to TO901317. The format is functional.
For series [8], the target named is T1, Oxysterols receptor LXR-beta.
The target of series [9] is T2, Oxysterols receptor LXR-alpha.
The subject of series [10] is Plasma. The experiment in a line: AUC (0 to infinity) in Long Evans rat brain at 10 mg/kg, po. Further details: time infinity, dose 10 mg/kg, route oral. The conditions noted are these: in vivo. The format is ADME, organism-based.
Series [11] in a line: Ratio of AUC (0 to infinity) in brain to AUC (0 to infinity) in plasma in Long Evans rat at 10 mg/kg, po. It counts as ADME, organism-based. Also noted: dose 10 mg/kg, route oral. As to conditions: brain and plasma.
Series [12] concerns THP-1. The experiment in a line: Stimulation of [3H]cholesterol efflux in human THP1 foam cells loaded with ac-LDL. It counts as functional, cell-based.
Series [13] is described as follows: Cmax in Long Evans rat plasma at 10 mg/kg, po. The format is ADME, organism-based. Also noted: dose 10 mg/kg, route oral.
The test system of series [14] is Plasma. The experiment in a line: AUC (0 to infinity) in Long Evans rat plasma at 10 mg/kg, po. Also noted: time infinity, dose 10 mg/kg, route oral. It counts as ADME, organism-based. The conditions noted are these: in vivo.
A short description of series [15]: Cmax in Long Evans rat brain at 10 mg/kg, po. It counts as ADME, organism-based. Further details: dose 10 mg/kg, route oral.
Series [16] in a line: Ratio of AUC (0 to infinity) in brain to AUC (0 to infinity) in plasma in Long Evans rat at 30 mg/kg, po. Also noted: dose 30 mg/kg, route oral. The format is ADME, organism-based. As to conditions: brain and plasma.
Series [17] in a line: Cmax in Long Evans rat plasma at 30 mg/kg, po. The format is ADME, organism-based. Further details: dose 30 mg/kg, route oral.
Series [18] has as its system Plasma. The experiment in a line: AUC (0 to infinity) in Long Evans rat plasma at 30 mg/kg, po. It counts as ADME, organism-based. Further details: time infinity, dose 30 mg/kg, route oral. As to conditions: in vivo.
Series [19] can be described thus: Cmax in Long Evans rat brain at 30 mg/kg, po. The format is ADME, organism-based. Further details: dose 30 mg/kg, route oral.
Series [20] has as its system Plasma. The experiment in a line: AUC (0 to infinity) in Long Evans rat brain at 30 mg/kg, po. The format is ADME, organism-based. Further details: time infinity, dose 30 mg/kg, route oral. The conditions noted are these: in vivo.

Molecules are shown by their SMILES. pEC50, pIC50: −log10 of the molar value.

T1 sequence (P55055 whole entry): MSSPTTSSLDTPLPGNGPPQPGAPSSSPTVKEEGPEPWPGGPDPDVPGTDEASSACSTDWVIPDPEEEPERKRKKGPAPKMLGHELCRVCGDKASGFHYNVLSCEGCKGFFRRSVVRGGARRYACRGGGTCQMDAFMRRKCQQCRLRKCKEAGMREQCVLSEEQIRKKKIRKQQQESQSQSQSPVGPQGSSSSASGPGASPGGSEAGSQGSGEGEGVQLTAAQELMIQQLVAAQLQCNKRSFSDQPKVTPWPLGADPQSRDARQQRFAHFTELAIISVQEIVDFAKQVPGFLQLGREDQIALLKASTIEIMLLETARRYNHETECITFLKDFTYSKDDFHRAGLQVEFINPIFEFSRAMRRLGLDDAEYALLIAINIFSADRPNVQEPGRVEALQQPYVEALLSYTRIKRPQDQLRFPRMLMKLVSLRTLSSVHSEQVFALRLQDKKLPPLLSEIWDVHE

`O=C(O)Cc1ccc(COc2cccc(-c3c(Cc4ccccc4)cnc4c(C(F)(F)F)cccc34)c2)cc1` showed an Activity in the series on THP-1 [1] of 88%.
The term pIC50 denotes −log10 of the IC50, conventionally taken in molar units. As for `CCS(=O)(=O)c1cccc(Oc2cccc(-c3c(C(N)=O)cnc4c(C(F)(F)F)cccc34)c2)c1`, the pIC50 in series [2] was 7.96; in series [3], 6.34.
Turning to `CCOC(=O)c1cnc2c(C(F)(F)F)cccc2c1-c1cccc(Oc2cccc(S(C)(=O)=O)c2)c1`, the pIC50 was 8.70 in series [2] and 8.18 in [3].
In the same order, the values of `CS(=O)(=O)c1cccc(Oc2cccc(-c3c(C(=O)O)cnc4c(C(F)(F)F)cccc34)c2)c1` are 5.97 and 5.20.
The like results for `CS(=O)(=O)c1cccc(Oc2cccc(-c3c(-n4cnnn4)cnc4c(C(F)(F)F)cccc34)c2)c1` were, in that order, 5.28 and 4.57.
The like results for `CS(=O)(=O)c1cccc(Oc2cccc(-c3c(CN)cnc4c(C(F)(F)F)cccc34)c2)c1` were, in that order, 7.11 and 6.35.
Regarding `CS(=O)(=O)c1cccc(Oc2cccc(-c3c(C(=N)N)cnc4c(C(F)(F)F)cccc34)c2)c1`, the pIC50 is 5.29 in series [2] and 4.53 in [3].
The like results for `CS(=O)(=O)c1cc(F)cc(Oc2cccc(-c3c(C(N)=O)cnc4c(C(F)(F)F)cccc34)c2)c1` were, in that order, 7.74 and 6.26.
The term pEC50 denotes the negative decadic logarithm of the EC50, by convention in mol/L. A lower pEC50 goes with a high EC50. With `CS(=O)(=O)c1cccc(Oc2cccc(-c3c(C(N)=O)cnc4c(C(F)(F)F)cccc34)c2)c1`, the pIC50 in series [2] was 7.74; in series [3], 6.22. The pEC50 with THP-1 [4] was 6.96; with HepG2 [6], 6.43; in [8], 5.80; in series [9] it was 5.35. Besides, the Efficacy is given as 104% in the series on THP-1 [5] and 47% with HepG2 [7].
As for `CNC(=O)c1cnc2c(C(F)(F)F)cccc2c1-c1cccc(Oc2cccc(S(C)(=O)=O)c2)c1`, the figures for the pIC50 in [2] and in series [3] were 6.44 and less than 5.00, respectively.
For orientation: Kp means the ratio of the level in a tissue or fluid to that in plasma or blood. A word on the Cmax: it is the highest concentration seen after dosing. Take `CS(=O)(=O)c1cccc(Oc2cccc(-c3c(C(N)=O)cnc4c(Cl)cccc34)c2)c1`: the AUC is 457 ng/mL with Plasma [10] and 5417 ng/mL with Plasma [14]. In addition, the Kp in [11] came to 0.08. For the same molecule, the pIC50 was 7.80 in [2] and 6.27 in [3]. Moreover, the pEC50 in the series with THP-1 [4] was 6.36; in the series on HepG2 [6], 5.90; in the series with THP-1 [12] it was 8.00; in [8] it was 6.20; in series [9], 5.52. The Efficacy in the series with THP-1 [5] stood at 107%; in the series on HepG2 [7] it was 68%. In addition, the Activity in the series on THP-1 [1] is recorded as 71%. Moreover, the Cmax in series [13] stood at 1270 ng/mL; in series [15], 107 ng/mL.
As to `CC(C)S(=O)(=O)c1cccc(Oc2cccc(-c3c(C(N)=O)cnc4c(C(F)(F)F)cccc34)c2)c1`, the pIC50 in series [2] was 8.30; in series [3], 6.54.
As for `CS(=O)(=O)c1cccc(Oc2cccc(-c3c(C(N)=O)cnc4c(F)cccc34)c2)c1`, the pIC50 in [2] was 6.23; in [3] it was 4.90.
The like results for `CS(=O)(=O)c1cccc(Oc2cccc(-c3c(C#N)cnc4c(C(F)(F)F)cccc34)c2)c1` were, in that order, 8.66 and 7.87.
Take `CCNC(=O)c1cnc2c(C(F)(F)F)cccc2c1-c1cccc(Oc2cccc(S(C)(=O)=O)c2)c1`: the figures for the pIC50 in series [2] and in series [3] were 6.14 and 5.16, respectively.
The like results for `CS(=O)(=O)c1cc(Cl)cc(Oc2cccc(-c3c(C(N)=O)cnc4c(C(F)(F)F)cccc34)c2)c1` were, in that order, 7.21 and 5.75.
The like results for `Cc1cccc2c(-c3cccc(Oc4cccc(S(C)(=O)=O)c4)c3)c(C(N)=O)cnc12` were, in that order, 7.55 and 6.12.
The like results for `CCCS(=O)(=O)c1cccc(Oc2cccc(-c3c(C(N)=O)cnc4c(C(F)(F)F)cccc34)c2)c1` were, in that order, 7.24 and 5.86.
`CS(=O)(=O)c1cccc(Oc2cccc(-c3c(C(N)=O)cnc4ccccc34)c2)c1`: the figures for the pIC50 in [2] and in series [3] were 5.55 and less than 5.00, respectively.
`Fc1ccc(-c2c3cccc(C(F)(F)F)c3nn2Cc2ccc(F)cc2Cl)cc1` [LXR-623]: the Kp in series [16] came out at 1.2. The Efficacy in the series with THP-1 [5] stood at 100%; in the series on HepG2 [7] it was 38%. This molecule had a negative logarithm of the EC50 (pEC50) in the series on HepG2 [6] of 6.00. Besides, the Cmax is 2850 ng/mL in [17] and 3530 ng/mL in [19]. Also, the AUC in the series on Plasma [18] was found to be 13057 ng/mL; in the series with Plasma [20], 15312 ng/mL.
